Tests used:
[1] = tested on: GAGA receptor; settings: cited from earlier work
[2] = tested on: GABA; settings: cited from earlier work
[3] = tested on: NMDA receptors; settings: cited from earlier work
[4] = tested on: slow Ca^2+ channel; settings: cited from earlier work
[5] = tested on: kainate-induced excitotoxicity; settings: cited from earlier work
[6] = compared with propofol; cited from earlier work
[7] = tested on: brain; settings: cited from earlier work
[8] = Stability of crystal forms under strong light; assay type: physicochemical; settings: light stable box, illumination of 4500lux, 7 days
Excerpt: (§1) As compared with the solvate, the anhydrate and hydrate are more useful as pharmaceutical crystal forms. The relative stability of the crystal form is an important indicator to be investigated in the research of drug polymorph, and the stability under high temperature, high humidity, strong light, and in water is investigated for the crystal forms I and II.
The crystal forms I and II prepared in Example 6 and 15 were respectively placed in a light stable box with illumination of 4500lux for 7 days and then characterized, and the result was shown in Table 4.

[9] = Stability of crystal forms under high temperature; assay type: physicochemical; settings: ventilated oven at 80° C. for 7 days, then characterized
Method: as §1
The crystal forms I and II prepared in Example 6 and 15 were respectively placed in a ventilated oven at 80° C. for 7 days and then characterized, and the result was shown in Table 4.

[10] = Stability of crystal forms under high humidity; assay type: physicochemical
Method: as §1
The crystal forms I and II prepared in Example 6 and 15 were respectively placed in a constant temperature and humidity chamber at 80° C. and 75% RH for 7 days and then characterized, and the result was shown in Table 4.

[11] = Stability of crystal forms suspended in water; assay type: physicochemical; settings: suspended in water at 25° C. for 7 days
Method: as §1
The crystal forms I and II prepared in Example 6 and 15 were placed in water at 25° C. and suspended for 7 days and then characterized, and the result was shown in Table 4.

Compound: CC(C)c1cc(-c2cc(C(C)C)c(O)c(C(C)C)c2)cc(C(C)C)c1O [3,3′,5,5′-tetraisopropyl-4,4′-diphenol]
- Affinity for the GAGA receptor [1]: strong affinity
- GABA agonistic effect [2]: GABA agonistic effect
- Antagonism of NMDA receptors [3]: could antagonize NMDA receptors
- Ca^2+ influx in the slow Ca^2+ channel [4]: regulate Ca^2+ influx
- Effect on kainate-induced excitotoxicity [5]: protective effect
- Antioxidant effect [6]: significantly stronger than propofol
- Protective effect of brain [7]: strong protective effect of brain

Compound: CC(C)c1cc(-c2cc(C(C)C)c(O)c(C(C)C)c2)cc(C(C)C)c1O [crystal form I, 3,3′,5,5′-tetraisopropyl-4,4′-diphenol]
- Crystal form found after Light [8]: good stability

Compound: CC(C)c1cc(-c2cc(C(C)C)c(O)c(C(C)C)c2)cc(C(C)C)c1O [crystal form II, 3,3′,5,5′-tetraisopropyl-4,4′-diphenol]
- Crystal form found after High temperature (80° C.) [9]: tendency of converting to the crystal form I
- Crystal form found after High temperature (80° C.) ([9]; listed as II): I, II
- Stability under high humidity conditions ([10]; 80° C. and 75% RH for 7 days (as printed in text)): tendency of converting to the crystal form I
- Crystal form found after High humidity (40° C., 75% RH) ([10]; constant temperature and humidity chamber, 40° C., 75% RH, 7 days): I (few), II
- Crystal form found after Water [11]: tendency of converting to the crystal form I
- Crystal form found after Water ([11]; listed as II): I (few), II

From patent US20150376099A1, “New 3,3',5,5'-Tetraisopropyl-4,4'-Diphenol Crystal Form And Preparation Method Thereof” (XI' AN LIBANG PHARMACEUTICAL CO., LTD., priority 2013, published 2015)
